According to article PMC4559881 (Molecular Neurodegeneration, 2015):
Values joined by “and” are separate entries in the source; they are usually repeats but may differ in a detail not shown here. Equal entries are not always repeated. Where two headings read alike, the source gives them in different places.

What was measured:
wtAPP CHO cells = test: Release of APP metabolites from wild-type human APP751 CHO cells; conditions: Cricetulus griseus, 24 h
APP51/16 transgenic mice = test: Chronic 6-week treatment of APP51/16 mice: APP metabolites, Aβ deposition and neuroinflammation; assay type: in vivo, mouse; conditions: relative to vehicle-treated mice
Aβ40 [1] = test: Pre-plaque APP51/16 mice: brain Aβ40 after single or 4-day oral dosing; assay type: in vivo, mouse
Protocol: This strain of transgenic mice was selected since it resembles the situation in sporadic human AD, where no APP mutation is present. […] Next, we dosed the compound p.o. once daily for 4 days at 2 doses to pre-plaque APP51/16 mice (age: 8 months) in order to achieve steady state exposure, and measured the Aβ40 reduction 24 h after the last dose. […] In order to achieve a >50 % reduction of brain Aβ over a 24 h period in mice we selected this dose for a chronic study.
(§1) Frozen rodent forebrains were homogenized in 9 volumes of ice-cold Tris-buffered saline (pH 7.4) containing Complete protease inhibitor cocktail (Roche Diagnostics, Penzberg, Germany) using a Sonifier 450 (Branson) and stored in aliquots at -80 °C. Triton X-100 soluble Aβ was extracted by mixing 50 μl 2 % Triton X-100 with 50 μl homogenate, incubating for 15 min on ice with vortexing, followed by ultracentrifugation at 100000xg for 15 min. The clear supernatant was diluted to a final forebrain dilution of 1:100 and used for analysis. For the extraction of insoluble amyloid peptides, 50 μl forebrain homogenate was mixed with 117 μl of 100 % formic acid and stored on ice for 15 min with vortexing. Samples were neutralized with 950 μl 1 M Tris base, containing Complete protease inhibitor cocktail (Roche, Basle, Switzerland) and stored overnight at room temperature. The supernatant after 15 min centrifugation at 14000 rpm was used for analysis.
Aβ38, 40 and 42 were determined using the electro-chemiluminescence immuno assay kits from Meso Scale Discovery (Rockville, MD, USA) in either singlet or triplex format. Samples and standards were prepared according to the manufactures protocols. […] Soluble APPα and sAPPβ from APP51/16 mice were determined from the 100000xg supernatant and analyzed with Meso Scale Discovery commercial kits. C-terminal fragments C83 and C99 were determined from Western blots. […] After transfer to Immobilon P membranes (Bio-Rad Bedford MA USA), bands were probed with APP C8 antibody (recognizing the C-terminus of APP) and detected with goat anti-mouse IgG Fab fragment AlexaFluor680 (Invitrogen). […]

[2] = Chronic treatment of mice: observations (mortality, hair colour, retina); assay type: in vivo; conditions: APP51/16 mice, 100 μmol/kg p.o. once daily
[3] = Blood pharmacokinetics and brain penetration in the rat, 30 μmol/kg oral; assay type: in vivo; conditions: for Cmax / AUC(0-t): male, Sprague Dawley, 30 umol/kg
Text: In vivo blood pharmacokinetics and brain penetration was investigated in the rat.

Aβ40 [4] = test: Dog PK/PD study: Aβ40 in CSF and plasma; assay type: in vivo
Protocol: The mean (± SD) level of Aβ40 in the CSF prior to dosing was 5991 ± 1199 pg/ml (2 sampling times -24 h and -1 h, n = 7), and the predose plasma Aβ40 level was 261 ± 13 pg/ml (mean ± SD, n = 4, -1 h). […] All dogs responded strongly to the treatment, CSF Aβ40 was reduced by approximately 80 % from 12 to 48 h post dose and slowly returned to baseline (Fig. 3b). […] Furthermore, the available data were used for a calculation of the Aβ40 clearance rate from dog CSF.
(§2) Aβ38, 40 and 42 were determined using the electro-chemiluminescence immuno assay kits from Meso Scale Discovery (Rockville, MD, USA) in either singlet or triplex format. Samples and standards were prepared according to the manufactures protocols. The kit based on the antibody 4G8 was used for rat forebrain and CSF samples, and kits based on 6E10 were used for dog CSF or plasma and APP51/16 brain and CSF samples. Soluble APPα and sAPPβ from APP51/16 mice were determined from the 100000xg supernatant and analyzed with Meso Scale Discovery commercial kits. C-terminal fragments C83 and C99 were determined from Western blots. Forebrain homogenates dephosphorylated with lambda protein phosphatase as described and run on a 10 % Tris-bicine gel with 8 M urea. After transfer to Immobilon P membranes (Bio-Rad Bedford MA USA), bands were probed with APP C8 antibody (recognizing the C-terminus of APP) and detected with goat anti-mouse IgG Fab fragment AlexaFluor680 (Invitrogen). The same gel was used to visualize Aβ1-38, 1-40, and 1-42 using the N-terminal antibody beta1 and goat anti rabbit IgG IRdye 800CW (Odyssey). Full-length human APP was detected using an in house immunoassay based on the MSD ECL system as described.

Aβ40 [5] = test: Rat PK/PD study: Aβ40 in forebrain and CSF after oral dosing; assay type: in vivo; conditions: for ED50: po, at 4 h, read-out: ED50 for inhibition of forebrain Aβ40
Protocol: Maximum activity was between 4 and 8 h, and Aβ40 concentrations returned to baseline after 24 h. Significant (>50 %) Aβ40 lowering was observed even at the lowest dose of 3 μmol/kg, and the effect saturated at higher doses.
as §1, §2

[6] = Chronic 6-week treatment of APP51/16 mice: NB-360 blood exposure; conditions: female, APP51/16 (C57BL/6 background), mouse, po, 100 μmol/kg
Protocol: Brain samples were homogenized with 2 mM KH2PO4 buffer (approx. 1/2, w/v). […] The LLOQ ranged between 0.4 and 2 ng/mL in blood and 1.2 ng/g and 6 ng/g in brain.
Rat studies used male Charles River Sprague-Dawley rats of approx. 300 g body weight. Female transgenic APP51/16 mice (C57BL/6 background strain) were bred in-house. APP51/16 mice express human wild-type APP751 under the control of a Thy-1 expression cassette in brain neurons, and are characterized by mostly cortical, but few vascular amyloid-β deposits. […] Dosing was per os in a dose volume of 10 ml/kg for mice and 5 ml/kg for rats. […] Rodents were deeply anesthetized for CSF sampling from the cisterna magna, accessed through the exposed atlanto-occipital membrane. CSF was harvested into protein lo-bind Eppendorf tubes and frozen on dry ice. Animals were decapitated while anesthetized and blood and brain samples collected. Brains were briefly rinsed in PBS, quickly wet-dissected and samples frozen on a metal plate precooled on dry ice. All samples were stored at -80 ° C until analysis. The dog study was carried out at Charles River Laboratories, Canada. Male dogs were used with n = 4 per group. A cannula with an access port was implanted under anesthesia, to allow serial CSF sampling from the lateral ventricle. Dogs were allowed to recover from the surgery for 2 weeks before the start of the experiment.

[7] = Pharmacokinetics after i.v. and oral application, mouse
Protocol: (§3) Pharmacokinetic studies used male Sprague Dawley rats, C57BL6 mice and Beagle dogs, obtained from Charles River (France, rodents) and Marshall (Italy, dogs). […] Blood was collected i.v., by sublingual bleeding or at sacrifice whereas a serial blood sampling allowed obtaining individual PK profiles in these species. Blood samples were taken between 5 min (intravenous) and 15 min (oral) up to 24 h (mice), 48 h (rat) and 408 h (dog).
(§4) The absorption and disposition parameters were estimated by a non-compartmental analysis of the mean blood concentration (n = 3 mice) or individual concentration (rats, dogs) versus time profile after oral and intravenous administration.

[8] = Pharmacokinetics after i.v. and oral application, rat
Protocol: as §3, §4

[9] = male, Sprague Dawley, blood, iv, 2 umol/kg

## Cc1cc(C#N)cnc1C(=O)Nc1ccc(F)c([C@]2(C)CO[C@@](C)(C(F)(F)F)C(N)=N2)c1 [NB-360]
wtAPP CHO cells; read-out: IC50 Aβ40 release
  IC50: 3 nM
wtAPP CHO cells; read-out: IC50 Aβ42 release
  IC50: 3 nM
wtAPP CHO cells; read-out: IC50 sAPPβ release
  IC50: 4 nM
APP51/16 transgenic mice
  number of GFAP positive cell clusters in the cortex: substantially lower
Aβ40 [1]; pre-plaque APP51/16 mice (3-5 months), 30 μmol/kg single oral dose, 4 h
  lowering of TX-100 soluble brain Aβ40: 79.6%
Aβ40 [1]; pre-plaque APP51/16 mice (8 months), 30 μmol/kg/d p.o. 4 days, 24 h after last dose
  reduction of forebrain Aβ: 15.1%
Aβ40 [1]; pre-plaque APP51/16 mice (8 months), 100 μmol/kg/d p.o. 4 days, 24 h after last dose
  Aβ40 reduction in forebrain: 52.1%
[2]
  first appearance of grey hair patches: 2-3 weeks
[2]; 6 weeks
  mortality during treatment: Two out of 17 mice in the treatment group died
[3]; blood, corrected for nonspecific binding
  unbound AUC 0-24 h blood: 0.63 µM·h
[3]; brain, corrected for nonspecific binding
  unbound AUC 0-24 h brain: 0.54 µM·h
[3]; blood
  Cmax: 1620 nM
[3]; blood, read-out: AUC 0-24 h blood
  AUC(0-t): 10.2 µM·h
[3]; brain
  Cmax: 4010 nM
[3]; brain, read-out: AUC 0-24 h brain
  AUC(0-t): 23.6 µM·h
Aβ40 [4]; 1.1 μmol/kg (0.5 mg/kg)
  time to reach the maximum effect on CSF Aβ: around 12 h
Aβ40 [4]; 0.5 mg/kg p.o.
  time at which CSF Aβ40 reached baseline: about 120 h
Aβ40 [4]; 0.5 mg/kg p.o., after 1 h
  Plasma Aβ40 change: -42%
Aβ40 [4]; 0.5 mg/kg p.o., after 12 h
  Plasma Aβ40 change: -70%
Aβ40 [4]; 0.5 mg/kg p.o., from 12 to 48 h post dose
  CSF Aβ40 reduction: approximately 80%
Aβ40 [4]; Canis lupus familiaris, read-out: in vivo IC50 of NB-360 in blood for the reduction of Aβ40 in CSF, PK/PD modelling
  IC50: 59 ± 13 nM
Aβ40 [4]; from the values at 12 and 36 h
  Aβ reduction, approximate area under the effect curve over a 24 h period: 70-75%
Aβ40 [5]; 30 μmol/kg p.o., 4 h
  Aβ40 inhibition: 90.9% and ~ 90%
Aβ40 [5]; based on 4 h data, Fig. 2d
  Max effect (dose-response in brain): 91%
Aβ40 [5]; lowest dose 3 μmol/kg p.o.
  Aβ40 lowering: > 50%
Aβ40 [5]; converted dose
  ED50: 0.7 mg/kg
Aβ40 [5]
  ED50: 1.6 ± 0.25 µmol/kg
[6]
  concentration at 4 h: 3200 nM
  concentration at 24 h: 130 nM
[7]; C57BL6, mouse, blood, iv, 2 umol/kg
  clearance: 16 mL/min/kg
[7]; C57BL6, mouse, blood, po, 6 umol/kg
  bioavailability: 37%
[7]; mouse, 2 μmol/kg i.v.
  Terminal half-life after i.v. application: 3.6 h
  Vol. of Distribution: 4.6 L/kg
[8]; 2 μmol/kg i.v.
  Vol. of Distribution: 10.2 L/kg
[8]; [9]
  clearance: 52 mL/min/kg
  half-life: 2.7 h
[8]; male, Sprague Dawley, blood, po, 6 umol/kg
  bioavailability: 92%
